From patent US20060046981A1, “Anti-nonmelanoma carcinoma compounds, compositions, and methods of use thereof” (GILEAD SCIENCES, INC., priority 2003, published 2006)
Where two headings read alike, the source gives them in different places. Blank lines part the entries; values can stand above or below the compound they belong to.

Tests used:
[1] = tested on: SiHa cells; assay: Antiproliferation assay (7 days, Sulforhodamine B) in SiHa cells; assay type: cell-based, human; conditions: for Selectivity (HEL/SiHa): HEL EC50 divided by SiHa EC50; for Selectivity for SiHa cells compared with HEL cells: Example 80, also versus PHK keratinocytes, fold
Protocol: Antiproliferation assays measure effect of compounds on proliferation of cultured cells. Cells are cultured for 7 days in the presence of various concentrations of compounds. On the 7th day, cells are stained with dye, and intensity of staining (proportional to cell number) is measured by spectrophotometer.
(§1) Cells were detached from culture flasks using trypsin, counted, and plated in 96-well culture plates (250-1000 cells per well, depending on cell type). On the next day (defined as day 0), after cells attached to the bottom of plates, 5-fold serial dilutions of compounds were added in duplicate. No compound and 10 μM colchicine (cell division inhibitor) was added to control wells, which would represent 100% proliferation and 0% proliferation, respectively.
(§2) Seven days after addition of compounds, culture plates were treated with 10% trichloroacetic acid at 4° C. for 1 hr, then washed with water. This procedure allows cell-derived proteins to bind to the bottom surface of plates. Proteins were stained with 0.4% Sulforhodamine B in 1% acetic acid for 10 minutes, followed by extensive washing with 1% acetic acid. Remaining dye bound to the bottom of plates was dissolved in 10 mM Trizma base. This generated purple color that was quantified by measuring the absorbance at 510 nm wavelength, using spectrophotometer.
(§3) Cells were detached from culture flasks using trypsin, counted, and plated in 96-well culture plates ([…], depending on cell type). On the next day (defined as day 0), 5-fold serial dilutions of compounds were added in duplicate. Seven days after addition of compounds, culture plates were treated with 10% trichloroacetic acid at 4° C. for 1 hr and washed with water. This procedure allows cellular proteins to bind to the bottom surface of plates. Proteins were stained with 0.4% Sulforhodamine B in 1% acetic acid for 10 minutes, followed by extensive washing with 1% acetic acid. Remaining dye bound to the bottom of plates was solubilized in 10 mM Trizma base, generating purple color. Intensity of the color (proportional to cell number) was quantified by measuring the absorbance at 510 nm wavelength, using spectrophotometer. […] GraphPad Prism version 4.00 for Windows (GraphPad Software, San Diego Calif. USA) was used for the curve fitting and EC50 calculation.

[2] = tested on: HEL cells; assay: Antiproliferation assay (7 days, Sulforhodamine B) in HEL fibroblasts; assay type: cell-based, human; conditions: read-out: Antiproliferation EC50 HEL lung fibroblast
Protocol: as §1, §2, §3

[3] = tested on: CaSki cells; assay: Antiproliferation assay in CaSki cells; assay type: cell-based; conditions: Homo sapiens, Ca-Ski; Table 79-4; read-out: Antiproliferation EC50 in HPV positive carcinoma cells CaSki HPV16
[4] = tested on: HeLa cells; assay: Antiproliferation assay in HeLa cells; assay type: cell-based; conditions: Homo sapiens, Table 79-4, read-out: Antiproliferation EC50 in HPV positive carcinoma cells HeLa HPV18
[5] = tested on: C-4 I cells; assay: Antiproliferation assay in C-4 I cells; assay type: cell-based; conditions: Homo sapiens, Table 79-4, read-out: Antiproliferation EC50 in HPV positive carcinoma cells C-41 HPV18
[6] = tested on: PHK skin keratinocytes; assay: cells; assay type: cell-based; conditions: Homo sapiens, Keratinocyte; Table 79-3; read-out: Antiproliferation EC50 PHK skin keratinocytes
[7] = tested on: MS751 cells; assay: Antiproliferation assay in MS751 cells; assay type: cell-based; conditions: Homo sapiens, Table 79-4, read-out: Antiproliferation EC50 in HPV positive carcinoma cells MS-751 HPV18
[8] = tested on: SCC-9 cells; assay: Antiproliferation assay in SCC-9 cells; assay type: cell-based; conditions: Homo sapiens, Table 79-4, read-out: Antiproliferation EC50 in HPV negative carcinoma cells SCC-9 tongue
[9] = tested on: CK cervical keratinocytes; assay: cells; assay type: cell-based; conditions: Homo sapiens, Keratinocyte; Table 79-3; read-out: Antiproliferation EC50 CK cervical keratinocytes
[10] = tested on: SCC-4 cells; assay: Antiproliferation assay in SCC-4 cells; assay type: cell-based; conditions: Homo sapiens, Table 79-4, read-out: Antiproliferation EC50 in HPV negative carcinoma cells SCC-4 tongue
[11] = tested on: HT-3 cells; assay: Antiproliferation assay in HT-3 cells; assay type: cell-based; conditions: Homo sapiens, Table 79-4, read-out: Antiproliferation EC50 in HPV negative carcinoma cells HT-3 cervix
[12] = tested on: ME-180 cells; assay: Antiproliferation assay in ME-180 cells; assay type: cell-based; conditions: Homo sapiens, Table 79-4, read-out: Antiproliferation EC50 in HPV positive carcinoma cells ME-180 HPV39
[13] = tested on: HPV-16 SiHa cells; assay type: cell-based, human; conditions: day 7, 0.2 μg/mL, Annexin V-Propidium iodide double staining
[14] = Table 79-2, 7 days, read-out: Antiproliferation EC50 SiHa cervical carcinoma (HPV16)
[15] = Homo sapiens, SiHa, 168 h, Table 79-2, 7 days, read-out: Antiproliferation EC50 SiHa cervical carcinoma (HPV16)
[16] = Homo sapiens, SiHa, Table 79-3, read-out: Antiproliferation EC50 SiHa cervical carcinoma (HPV16)
[17] = Homo sapiens, HEL, 168 h, Table 79-2, 7 days

Compound: C[C@@]1(CO)[C@H](O)CC[C@@]2(C)[C@H]1CC[C@H]1C[C@@H]3C[C@@]12CC[C@]3(O)CO [Aphidicolin (+), Aphidicolin]
Selectivity (HEL/SiHa) ([1]; Table 79-2): 0.40 | EC50 [1, 14]: 856 nM | EC50 ([2]; Table 79-2, 7 days): 324 nM

EC50 [4]: 174 nM
Compound: Nc1ccn([C@@H]2O[C@H](CO)[C@@H](O)[C@@H]2O)c(=O)n1 [AraC, cytarabine]
Selectivity for SiHa cells compared with HEL cells [1]: did not show such selectivity | Selectivity (HEL/SiHa) ([1]; Table 79-2): 0.113 | EC50 [1, 15]: 257 nM | EC50 [1, 16]: 257 nM | EC50 ([1]; Homo sapiens, SiHa, Table 79-4, read-out: Antiproliferation EC50 in HPV positive carcinoma cells SiHa HPV16): 257 nM | EC50 ([1]; Homo sapiens, six HPV positive cell lines: SiHa, CaSki, HeLa, MS751, C-4I, ME-180, read-out: Antiproliferation EC50 values, range over all cell lines): 94 to 257 nM | Selectivity (CK/SiHa) ([1]; Table 79-3): 0.4 | Selectivity (PHK/SiHa) ([1]; Table 79-3): 0.57 | EC50 [3]: 94 nM | EC50 [5]: 123 nM | EC50 [6]: 147 nM | EC50 [7]: 144 nM | EC50 [8]: 68 nM | EC50 [9]: 107 nM | EC50 [2, 17]: 29 nM | EC50 [10]: 74 nM | EC50 [11]: 214 nM | EC50 [12]: 101 nM

Compound: Nc1ccn(C[C@@H](CO)OCP(=O)(O)O)c(=O)n1 [Cidofovir]
Selectivity (HEL/SiHa) ([1]; Table 79-2): 0.3 | EC50 [1, 15]: 84000 nM | EC50 [2, 17]: 28000 nM

Compound: CN(C)/N=N/c1[nH]cnc1C(N)=O [Dacarba-zine, Dacarbazine]
Selectivity (HEL/SiHa) ([1]; Table 79-2): 3.98 | EC50 [1, 15]: 7400 nM | EC50 [2, 17]: 29500 nM

Compound: C[C@H]1O[C@@H](n2cc(F)c(=O)[nH]c2=O)[C@H](O)[C@@H]1O [Doxifluridine]
Selectivity (HEL/SiHa) ([1]; Table 79-2): 0.449 | EC50 [1, 15]: 8760 nM | EC50 [2, 17]: 3930 nM

Compound: COc1cccc2c1C(=O)c1c(O)c3c(c(O)c1C2=O)C[C@@](O)(C(=O)CO)C[C@@H]3O[C@H]1C[C@H](N)[C@H](O)[C@H](C)O1 [Doxorubicin]
Selectivity (HEL/SiHa) ([1]; Table 79-2): 0.43 | EC50 [1, 15]: 9.76 nM | EC50 [2, 17]: 4.2 nM

Compound: Cc1c2ccncc2c(C)c2c1[nH]c1ccccc12 [Ellipticine]
Selectivity (HEL/SiHa) ([1]; Table 79-2): 1.02 | EC50 [1, 15]: 478 nM | EC50 [2, 17]: 486 nM

Compound: COc1cc([C@@H]2c3cc4c(cc3[C@@H](O[C@@H]3O[C@@H]5CO[C@@H](C)O[C@H]5[C@H](O)[C@H]3O)[C@H]3COC(=O)[C@H]23)OCO4)cc(OC)c1O [Etoposide]
Selectivity (HEL/SiHa) ([1]; Table 79-2): 0.31 | EC50 [1, 15]: 469 nM | EC50 [2, 17]: 144 nM

Compound: COc1cc2c(c(N)c1OC)C(=O)/C(=C\c1cc(C)c(O)c(C)c1)C2 [Indanosine, Indanocine]
EC50 ([1]; Homo sapiens, SiHa, 168 h, read-out: Antiproliferation EC50 SiHa cervical carcinoma (HPV16)): 588 nM | EC50 ([2]; Homo sapiens, HEL, 168 h): 159 nM

Compound: O=C1c2c(O)ccc(O)c2C(=O)c2c(NCCNCCO)ccc(NCCNCCO)c21 [Mitoxantrone]
Selectivity (HEL/SiHa) ([1]; Table 79-2): <0.37 | EC50 [1, 15]: 8.67 nM | EC50 [2, 17]: < 3.2 nM

Compound: Nc1nc2c(ncn2CCOCP(=O)(O)O)c(=O)[nH]1 [PMEG, 9-(2-phosphonylmethoxyethyl)guanine]
Selectivity for SiHa cells compared with HEL cells [1]: did not show such selectivity | Selectivity (HEL/SiHa) ([1]; Table 79-2): 4.1 | EC50 [1, 15]: 207 nM | EC50 [1, 16]: 207 nM | Selectivity (CK/SiHa) ([1]; Table 79-3): 2.4 | Selectivity (PHK/SiHa) ([1]; Table 79-3): 0.48 | EC50 [6]: 101 nM | % of apoptotic cells in the culture [13]: 1.2% | EC50 [9]: 501 nM | EC50 [2, 17]: 861 nM

Compound: COc1cc([C@@H]2c3cc4c(cc3[C@H](O)[C@H]3COC(=O)[C@H]23)OCO4)cc(OC)c1OC [Podofilox]
Selectivity for SiHa cells compared with HEL cells [1]: showed no selectivity

Compound: CC[C@]1(O)C[C@@H]2CN(CCc3c([nH]c4ccccc34)[C@@](C(=O)OC)(c3cc4c(cc3OC)N(C)[C@H]3[C@@](O)(C(=O)OC)[C@H](OC(C)=O)[C@]5(CC)C=CCN6CC[C@]43[C@@H]65)C2)C1 [Vinblastine]
Selectivity (HEL/SiHa) ([1]; Table 79-2): 0.39 | EC50 [1, 15]: 0.68 nM | EC50 [2, 17]: 0.27 nM

Compound: CC[C@]1(O)C[C@H]2CN(CCc3c([nH]c4ccccc34)[C@@](C(=O)OC)(c3cc4c(cc3OC)N(C=O)[C@H]3[C@@](O)(C(=O)OC)[C@H](OC(C)=O)[C@]5(CC)C=CCN6CC[C@]43[C@@H]65)C2)C1 [Vincristine]
Selectivity (HEL/SiHa) ([1]; Table 79-2): 1.55 | EC50 [1, 15]: 1.24 nM | EC50 [2, 17]: 1.92 nM

Compound: Nc1ccn([C@@H]2O[C@H](CO)[C@@H](O)C2(F)F)c(=O)n1 [gemcitabine]
Selectivity for SiHa cells compared with HEL cells [1]: did not show such selectivity

Compound: Bleomycin
Selectivity (HEL/SiHa) ([1]; Table 79-2): 0.01 | EC50 [1, 14]: 3140 nM | EC50 ([2]; Table 79-2, 7 days): 20.3 nM
